In US10835533B2, “1 -((3S,4R)-4-(3-fluorophenyl)-1-(2-methoxyethyl)pyrrolidin-3-yl)-3-(4-methyl-3-(2-methylpyrimidin-5-yl)-1-phenyl-1H-pyrazol-5-yl)urea as a TrkA kinase inhibitor” (Array BioPharma Inc., priority 2014, dated 2020):

Assays:
[1] = IV clearance, 1 mg/kg IV, dog; type: in vivo; conditions: for clearance: male, Beagle, plasma, 1 mg/kg IV; for in vivo/in vitro correction factor: microsomal CLh divided by IV CL
Protocol: (§1) In Table 1, the predicted human IV clearance values were calculated from compound concentration-versus-time data in plasma collected from pre-clinical species (mouse, rat, dog and monkey) following 1 mg/kg intravenous (IV) doses. Concentrations of compound in plasma were measured by LC-MS (liquid chromatography-mass spectrometry). AUCinf values (Area under the plasma concentration-time curve for a dosing interval from time 0 extrapolated to infinity) for individual Cp/t curves (concentration of the drug in plasma at any time t) were determined using linear-trapezoidal integration and first order extrapolation from terminal points of the Cp/t curves, and clearance (CL) was calculated using Dose/AUCinf.
An IV dose formulation for delivery of a 1 mg/kg in 1 mL/kg dose volume was prepared as follow. The vehicle for the formulation was 20% Trappsol® (hydroxypropyl Beta cyclodextrin; CDT, Inc.) (aq) in water. A final volume of the vehicle was added to each of Compound 1, Compound 2, and Compound 3 (as dry compounds) and the mixture was stirred until a homogeneous solution was obtained. The pH of the final solution was 7. The solution was filtered using a 0.2 μM filter before delivering to the animal.
Male Beagle dogs received a single intravenous dose following an overnight fast. Blood/plasma was collected (1.5 mL/timepoint) in K2EDTA blood collection tubes at the following time points post-dose: 0, 1, 5, 15, and 30 minutes, and 1, 2, 4, 8, 12, 24, and 48 hours, and mixed thoroughly. Blood samples were collected from the jugular, cephalic or saphenous veins from conscious animals. Blood samples were kept on ice until processed for plasma. Blood samples were centrifuged at 3200 RPM for 10 minutes at approximately 5° C. Plasma samples were directly transferred to 96-well plate tubes (MatrixTech, 0.75 mL). Rubber injectable caps were placed on the 96-well plate tubes. Plasma samples were stored at −20±5° C. until analyzed.
A single 12-point calibration curve was prepared by first serially diluting (3-fold) a 40-μg/mL stock solution of Compound 1, Compound 2, and Compound 3 in DMSO to provide standard solutions. Plasma (20 μL) was then added to the extraction plate, and 2.5 μL of each standard solution was added to the naïve plasma. A stock solution of an internal standard (10.0 μL of 2.5 μg/mL in acetonitrile) subsequently was added to each standard and sample solution. Proteinaceous material was precipitated from 20 μL of plasma with the addition of 317.5 μL of acetonitrile for a total volume of 350 μL. Samples were vortex-mixed for 5 minutes and spun in an Allegra X-12R centrifuge (Beckman Coulter, Fullerton, Calif.) for 15 minutes at approximately 1,500×g at 4° C. A 100-μL aliquot of each supernatant was transferred via a 550 μL Personal Pipettor (Apricot Designs, Monrovia, Calif.) to 96-well plates and diluted 1:1 with HPLC grade water. The resulting plates were sealed with plate mats and the amount of Compound 1 n plasma was analyzed by LC-MS/MS.
The LC-MS/MS system was comprised of an HTC-PAL autosampler (Leap Technologies, Inc., Carrboro, N.C.), an HP1100 HPLC (Agilent Technologies Inc., Santa Clara, Calif.), and an API4000 triple quadrupole mass spectrometer (Applied Biosystems, Foster City, Calif.). Chromatographic retention of the analyte and internal standard was achieved using a Phenomenex® Synergi 4μ Hydro-RP 80A column (2.1×30 mm, 4 μm particle size; Phenomenex, Torrance, Calif.) in conjunction with gradient conditions using mobile phases A (10 mM ammonium acetate in aqueous 0.1% formic acid and 1% isopropyl alcohol) and B (10 mM ammonium acetate in 89.9% acetonitrile, 10% methanol, 0.1% formic acid). The total run time, including re-equilibration time, for a single injection was 3.5 minutes and the flow rate was 0.8 mL/minute. Solvent B was increased from 5 to 95% in 1.0 minute, held at 95% for 1.0 minute, and then decreased to 5% in 0.1 minute. […]

[2] = IV clearance, 1 mg/kg IV, monkey; type: in vivo; conditions: for in vivo/in vitro correction factor: microsomal CLh divided by IV CL; for clearance: plasma, 1 mg/kg IV
Protocol: as §1

Row | clearance [1] | in vivo/in vitro correction factor [1] | in vivo/in vitro correction factor [2] | clearance [2] | Compound
1 | 7.6 mL/min/kg | 3.16 | 1.65 | 20 mL/min/kg | COCCN1C[C@@H](NC(=O)Nc2c(C)c(-c3cnc(C)nc3)nn2-c2ccccc2)[C@H](c2cccc(F)c2)C1 [Compound 1, 1-((3S,4R)-4-(3-fluorophenyl)-1-(2-methoxyethyl)pyrrolidin-3-yl)-3-(4-methyl-3-(2-methylpyrimidin-5-yl)-1-phenyl-1H-pyrazol-5-yl)urea]
2 | 25 mL/min/kg | 1.04 | 2.11 | 18 mL/min/kg | COCCN1C[C@@H](NC(=O)Nc2c(C)c(-c3cnc(C)nc3)nn2-c2ccccc2)[C@H](c2ccc(F)c(F)c2)C1 [Compound 2, 1-((3S,4R)-4-(3,4-difluorophenyl)-1-(2-methoxyethyl)pyrrolidin-3-yl)-3-(4-methyl-3-(2-methylpyrimidin-5-yl)-1-phenyl-1H-pyrazol-5-yl)urea]
3 | 18 mL/min/kg | 1.28 | 0.84 | 38 mL/min/kg | COCCN1C[C@@H](NC(=O)Nc2c(C)c(-c3cnn(C)c3)nn2-c2ccccc2)[C@H](c2ccc(F)cc2)C1 [Compound 3, 1-(1′,4-dimethyl-1-phenyl-1H,1′H-[3,4′-bipyrazol]-5-yl)-3-((3S,4R)-4-(4-fluorophenyl)-1-(2-methoxyethyl)pyrrolidin-3-yl)urea]
